# From patent publication US8894993B2, “Mitochondria-targeted antioxidants” (Natreon Inc., priority 2006, dated 2014)
# Columns and labels:
# [1] = system: stress-induced lipid peroxidation of mouse brain; assay: Stress-induced lipid peroxidation of mouse brain (thiobarbituric acid reaction); format: in vivo, Swiss albino mice; details: oral each 5 mg/Kg b.w. per day for 5 days, hypoxic stress, control 1.169
# Experimental: Swiss albino mice (20±g) were fed orally with—(a) 3,8-(OH)2-DBP; (b) CoQ10; (c) a combination of 3,8-(OH)2-DBP and CoQ10 and (d) 3,8-(OH)2-DBP and CoQ10 in a clathrated form with fusoms (each 5 mg/Kg b.w.), per day, for 5 days. The animals were subjected to hypoxic stress for 1 hour each day for 3 days from the 3rd day of the experiment. After the stipulated time-period, brain and liver of the animals were collected and mitochondria from the liver were separated as described previously (Liu Y, Deng F, Zhao R and Qu S, Chemosphere, 40(8):851-854, 2000). Lipid peroxidation in brain and liver-mitochondria was estimated by the method of Ohkawa et al. (Ohkawa H, Ohishi N and Yagi K, Assay for lipid peroxides in animal tissues by thiobarbituric acid reaction. Anal. Biochem., 95:351-358, 1979).
# [2] = system: Superoxide dismutase (SOD) activity in liver; assay: Superoxide dismutase activity in liver of mice after restraint stress; format: in vivo, Swiss albino mice; details: 25 mg/Kg p.o. 7 days, control 0.6
# Experimental: (§1) Swiss albino mice (20±2 g) were fed orally with—(a) 3-OH-DBP and (b) 3,8-(OH)2-DBP (each 25 mg/Kg b.w. per day, for 7 days). In case of the controls, only vehicle (0.8% carboxymethyl cellulose in water) was administered for seven days of the experiment. All the animals of all the groups were subjected to restraint stress (for 60 minutes) on the seventh day of the experiment, 2 hours after drug administration, according to a published method [Figueiredo, H. F., Bodie, B. L., Tauchi, M., Dolgas, C. M. and Herman, J. P. 2003. Endocrinology, 144, 5249-5258]. The model was selected in the present experiment, because restraint stress is a widely used model of acute oxidative stress. Immediately after being exposed to stress, the animals were sacrificed, blood was collected for analysis by HPLC of ATP and related nucleotides [Smolenska, Z., Kaznowska, Z., Zarowny, D., Simmonds, H. A. and Smolenski, R. T. 1999. […] AEC (adenylate energy charge) was calculated according to the method of Atkinson and Walton [Atkinson D E & Walton G M, Adenosine triphosphate conservation in metabolic regulation, J Biol Chem, 242 (1967) 3239] and TAN (total adenine nucleotides) was calculated according to an established method [Spencer M K & Katz A, Role of glycogen in control of glycolysis and IMP formation in human muscle during exercise, Am J Physiol, 260 (1991) E859]. […]
# [3] = Stability of reduced CoQ10 (CoQH2) by 3,8-(OH)2-DBP at different pH, HPLC; format: physicochemical
# Experimental: Two mg of solid CoQ10 (SRL, India), in an airtight vial was dissolved in 1 ml of methanol. After thorough vortexing, 5 mg of solid NaBH4 (Merck India) was added, 1 mg at a time, to the yellow colored solution of CoQ10 in methanol and kept in an ice-bath for a few minutes. The vial was kept shut to avoid contact with air but opened occasionally to avoid generation of pressure inside due to accumulation of hydrogen. After the reduction reaction, a clear colorless solution was obtained to which methanolic solution of 3,8-(OH)2-DBP with a concentration of 1 mg/ml (>90% pure) was added in a ratio of 1:1 to obtain a final concentration of the mixture—reduced CoQ10 […] DBP 0.5 mg/ml. This solution was analyzed by HPLC for reduced CoQ10 content at different time intervals. A control was prepared in similar fashion except that no DBP was added. The pH of the solutions was determined to be 8 using pH paper. To obtain solutions of reduced CoQ10 with pH 7 and pH 3, aliquots of concentrated HCl were added to the methanolic solution of reduced CoQ10 at pH 8. Afterwards, a solution of DBP was added and analysis by HPLC at different time intervals was conducted, as before.
# Mobile phase—Methanol:Acetonitrile:Ethanol 30:30:40
# Detection—PDA 290 nm for reduced CoQ10
# [4] = system: Blood levels of ATP and energy related indices; assay: Blood ATP and energy related indices in mice after restraint stress; format: in vivo, Swiss albino mice; details: 25 mg/Kg p.o. 7 days
# Experimental: Swiss albino mice (20±2 g) were fed orally with—(a) 3-OH-DBP and (b) 3,8-(OH)2-DBP (each 25 mg/Kg b.w. per day, for 7 days). In case of the controls, only vehicle (0.8% carboxymethyl cellulose in water) was administered for seven days of the experiment. All the animals of all the groups were subjected to restraint stress (for 60 minutes) on the seventh day of the experiment, 2 hours after drug administration, according to a published method [Figueiredo, H. F., Bodie, B. L., Tauchi, M., Dolgas, C. M. and Herman, J. P. 2003. Endocrinology, 144, 5249-5258]. The model was selected in the present experiment, because restraint stress is a widely used model of acute oxidative stress. Immediately after being exposed to stress, the animals were sacrificed, blood was collected for analysis by HPLC of ATP and related nucleotides [Smolenska, Z., Kaznowska, Z., Zarowny, D., Simmonds, H. A. and Smolenski, R. T. 1999. Rheumatology, 38, 997-1002; Komarova, S. V., Mosharov, E. V., Vitvitsky, V. M. and Ataullakhanov, F. I. 1999. Blood Cell Mol. Dis., 25(13), 170-179; Marquardt, D. L., Gruber, H. E. and Wasserman, S. I. 1984. Proc. Natl. Acad. Sci., 81, 6192-6196], and liver was collected for measurement of superoxide dismutase and catalase activities [Zielinski, S, and Pörtner, H. 2000. Comparative Biochem. Physiol. Part B, 125, 147-[60]. AEC (adenylate energy charge) was calculated according to the method of Atkinson and Walton [Atkinson D E & Walton G M, Adenosine triphosphate conservation in metabolic regulation, J Biol Chem, 242 (1967) 3239] and TAN (total adenine nucleotides) was calculated according to an established method [Spencer M K & Katz A, Role of glycogen in control of glycolysis and IMP formation in human muscle during exercise, Am J Physiol, 260 (1991) E859].
# [5] = Stability of reduced CoQ10 (CoQH2) by 3,8-(OH)2-DBP at different pH, HPLC; format: physicochemical; remark: listed apart in the source
# [6] = system: Catalase activity in liver; assay: Catalase activity in liver of mice after restraint stress; format: in vivo, Swiss albino mice; details: 25 mg/Kg p.o. 7 days, control 3.9
# Experimental: as §1
smiles,measurement,setting,value
"O=c1oc2cc(O)ccc2c2ccc(O)cc12 [3,8-(OH)2-DBP, 3,8-dihydroxydibenzo-α-pyrone]",OD Values at 532 nm (lipid peroxidation),[1],1.119
same,SOD activity in liver,[2],0.98 U/gm tissue
same,"Regenerated CoQ10 in presence of 3,8-(OH)2-DBP","[3]; autoxidation of CoQH2, pH 8, 0 min",0 µg/mL
same,"Regenerated CoQ10 in presence of 3,8-(OH)2-DBP","[3]; autoxidation of CoQH2, pH 8, 20 min",10.63 µg/mL
same,"Regenerated CoQ10 in presence of 3,8-(OH)2-DBP","[3]; autoxidation of CoQH2, pH 8, 40 min",37.37 µg/mL
same,"Regenerated CoQ10 in presence of 3,8-(OH)2-DBP","[3]; autoxidation of CoQH2, pH 8, 60 min",99.55 µg/mL
same,Reduced CoQ10 remaining in presence of DBP,"[3]; pH 3, 0 hour",100.00%
same,Reduced CoQ10 remaining in presence of DBP,"[3]; pH 3, 48 hour",79.27%
same,Reduced CoQ10 remaining in presence of DBP,"[3]; pH 3, 72 hour",73.91%
same,Reduced CoQ10 remaining in presence of DBP,"[3]; pH 7, 0 hour",100.00%
same,Reduced CoQ10 remaining in presence of DBP,"[3]; pH 7, 48 hour",10.79%
same,Reduced CoQ10 remaining in presence of DBP,"[3]; pH 7, 72 hour",6.33%
same,Reduced CoQ10 remaining in presence of DBP,"[3]; pH 8, 0 min, DBP 0.5 mg/ml",100.00%
same,Reduced CoQ10 remaining in presence of DBP,"[3]; pH 8, 40 min, DBP 0.5 mg/ml",93.44%
same,Reduced CoQ10 remaining in presence of DBP,"[3]; pH 8, 60 min, DBP 0.5 mg/ml",80.21%
same,Reduced CoQ10 remaining in presence of DBP,"[3]; pH 8, 80 min, DBP 0.5 mg/ml",66.57%
same,Reduced CoQ10 remaining in presence of DBP,"[3]; pH 8, 100 min, DBP 0.5 mg/ml",51.85%
same,"protection of reduced CoQ10 from oxidative degradation, in words",[3]; pH range 3 to 8,significantly protects
same,ADP,"[4]; mean ± SEM of 6, control 0.14 ± 0.02",0.09 ± 0.01 µM
same,ATP,"[4]; mean ± SEM of 6, control 0.67 ± 0.03",0.64 ± 0.05 µM
same,TAN,"[4]; mean ± SEM of 6, control 0.76 ± 0.03",0.76 ± 0.06 µM
same,AEC,"[4]; mean ± SEM of 6, control 0.89 ± 0.01",0.90 ± 0.01
same,ATP/ADP ratio,"[4]; mean ± SEM of 6, control 4.90 ± 0.32",6.96 ± 0.49
same,"Regenerated CoQ10 in presence of 3,8-(OH)2-DBP","[5]; autoxidation of CoQH2, pH 8, 80 min",151.28 µg/mL
same,"Regenerated CoQ10 in presence of 3,8-(OH)2-DBP","[5]; autoxidation of CoQH2, pH 8, 100 min",202.31 µg/mL
same,Catalase activity in liver,[6],3.4 U/mg tissue
